Data as given in patent US12624122B2, “Affinity maturated TAG72 specific single chain antibodies” (H. Lee Moffitt Cancer Center and Research Institute, Inc., priority 2016, dated 2026).

Key:
Format in all cases: cell-based
MDA-231 cells = test: flow cytometry apoptosis (annexin V and PI), MDA-231 cells with human CD8 T cells
Source text: (§1) FIGS. 5 to 96 are flow cytometry plots testing the disclosed bispecific antibodies. Table 1 summarizes flow cytometry results measuring apoptosis with annexin V and PI in gated populations of MCF-7 and MDA-231 cells treated with human CD8 T cells with bi-specific antibodies plus or minus the photosensitizing compound verteporfin.

MCF-7 cells = test: flow cytometry apoptosis (annexin V and PI), MCF-7 cells with human CD8 T cells
Source text: as §1

[1] = test system: programmed cell death ligand 1 (PDL1); test: tumor cell PDL1 surface expression

verteporfin [Vs]
Control group (%) viable cells (MDA-231 cells; CD8 + Vs (1 μM)): (56.3) %
Control group (%) viable cells (MDA-231 cells; CD8 + Vs (2 μM)): (57.4) %
Control group (%) viable cells (MDA-231 cells; CD8 + Vs (5 μM)): (55.3) %
Control group (%) viable cells (MCF-7 cells; CD8 + Vs (1 μM)): (19) %
Control group (%) viable cells (MCF-7 cells; CD8 + Vs (2 μM)): (13.3) %
Control group (%) viable cells (MCF-7 cells; CD8 + Vs (5 μM)): (7.51) %
tumor cell PDL1 surface expression [1]: reduce tumor cell programmed cell death ligand 1 (PDL1) surface expression
